# Data as given in ChEMBL document CHEMBL3217712, “Improved biodistribution, pharmacokinetics and photodynamic efficacy using a new photostable sulfonamide bacteriochlorin” (Medchemcomm, 2012).
# Activity calls are given as the source filed them. The calls are words filed in the database; no cut-off is given here.
# Tests used:
# [1] = Biodistribution in mouse Cloudman S91 tumor bearing DBA2 mouse spleen at 10 mg/kg, ip after 48 hrs; assay type: ADME, organism-based; set-up: dose 10 mg/kg, route intraperitoneal; details: read-out: Drug uptake
# [2] = Biodistribution in mouse Cloudman S91 tumor bearing DBA2 mouse spleen at 10 mg/kg, ip after 72 hrs; assay type: ADME, organism-based; set-up: dose 10 mg/kg, route intraperitoneal; details: read-out: Drug uptake
# [3] = Biodistribution in mouse Cloudman S91 tumor bearing DBA2 mouse intestine at 10 mg/kg, ip after 2 hrs; assay type: ADME, organism-based; set-up: dose 10 mg/kg, route intraperitoneal; details: read-out: Drug uptake
# [4] = Biodistribution in mouse Cloudman S91 tumor bearing DBA2 mouse kidneys at 10 mg/kg, ip after 72 hrs; assay type: ADME, organism-based; set-up: dose 10 mg/kg, route intraperitoneal; details: kidney, read-out: Drug uptake
# [5] = Biodistribution in mouse Cloudman S91 tumor bearing DBA2 mouse tumour at 10 mg/kg, ip after 6 hrs; assay type: ADME, organism-based, Neoplasm; set-up: dose 10 mg/kg, route intraperitoneal; details: read-out: Drug uptake
# [6] = Biodistribution in mouse Cloudman S91 tumor bearing DBA2 mouse heart at 10 mg/kg, ip after 2 hrs; assay type: ADME, organism-based; set-up: dose 10 mg/kg, route intraperitoneal; details: read-out: Drug uptake
# [7] = Biodistribution in mouse Cloudman S91 tumor bearing DBA2 mouse kidneys at 10 mg/kg, ip after 24 hrs; assay type: ADME, organism-based; set-up: dose 10 mg/kg, route intraperitoneal; details: kidney, read-out: Drug uptake
# [8] = Biodistribution in mouse Cloudman S91 tumor bearing DBA2 mouse lungs at 10 mg/kg, ip after 48 hrs; assay type: ADME, organism-based; set-up: dose 10 mg/kg, route intraperitoneal; details: lung, read-out: Drug uptake
# Nucleic Acid [9] = assay: Ratio of drug level in tumor to skin in mouse Cloudman S91 tumor bearing DBA2 mouse at 10 mg/kg, ip; assay type: ADME, organism-based; set-up: dose 10 mg/kg, route intraperitoneal; details: in vivo
# [10] = Biodistribution in mouse Cloudman S91 tumor bearing DBA2 mouse muscle at 10 mg/kg, ip after 72 hrs; assay type: ADME, organism-based, Muscle tissue; set-up: dose 10 mg/kg, route intraperitoneal; details: read-out: Drug uptake
# Mus musculus = assay: Toxicity in mouse Cloudman S91 cells allografted DBA2 mouse assessed as skin damage with oedema and large scab formation at 10 mg/kg, ip followed by irradiated with 96 J cm'-2 laser light for 20 mins measured after 24 hrs; assay type: organism-based; set-up: dose 10 mg/kg, route intraperitoneal; details: in vivo
# [11] = Biodistribution in mouse Cloudman S91 tumor bearing DBA2 mouse spleen at 10 mg/kg, ip after 12 hrs; assay type: ADME, organism-based; set-up: dose 10 mg/kg, route intraperitoneal; details: read-out: Drug uptake
# Nucleic Acid [12] = assay: Ratio of drug level in tumor to muscle in mouse Cloudman S91 tumor bearing DBA2 mouse at 10 mg/kg, ip; assay type: ADME, organism-based; set-up: dose 10 mg/kg, route intraperitoneal; details: in vivo
# [13] = Biodistribution in mouse Cloudman S91 tumor bearing DBA2 mouse blood at 10 mg/kg, ip after 6 hrs; assay type: ADME, organism-based; set-up: dose 10 mg/kg, route intraperitoneal; details: read-out: Drug uptake
# [14] = Biodistribution in mouse Cloudman S91 tumor bearing DBA2 mouse intestine at 10 mg/kg, ip after 48 hrs; assay type: ADME, organism-based; set-up: dose 10 mg/kg, route intraperitoneal; details: read-out: Drug uptake
# [15] = Biodistribution in mouse Cloudman S91 tumor bearing DBA2 mouse blood at 10 mg/kg, ip after 48 hrs; assay type: ADME, organism-based; set-up: dose 10 mg/kg, route intraperitoneal; details: read-out: Drug uptake
# [16] = Biodistribution in mouse Cloudman S91 tumor bearing DBA2 mouse skin at 10 mg/kg, ip after 6 hrs; assay type: ADME, organism-based, Zone of skin; set-up: dose 10 mg/kg, route intraperitoneal; details: read-out: Drug uptake
# [17] = Biodistribution in mouse Cloudman S91 tumor bearing DBA2 mouse liver at 10 mg/kg, ip after 72 hrs; assay type: ADME, organism-based; set-up: dose 10 mg/kg, route intraperitoneal; details: read-out: Drug uptake
# S91 [18] = assay: Photodynamic efficacy against mouse Cloudman S91 cells allografted in DBA2 mouse assessed as necrotic and flat tumor at 10 mg/kg, ip followed by irradiated with 96 J cm'-2 laser light for 20 mins measured after 1 to 2 days; assay type: functional, organism-based; set-up: dose 10 mg/kg
# [19] = Biodistribution in mouse Cloudman S91 tumor bearing DBA2 mouse muscle at 10 mg/kg, ip after 6 hrs; assay type: ADME, organism-based, Muscle tissue; set-up: dose 10 mg/kg, route intraperitoneal; details: read-out: Drug uptake
# [20] = Biodistribution in mouse Cloudman S91 tumor bearing DBA2 mouse muscle at 10 mg/kg, ip after 48 hrs; assay type: ADME, organism-based, Muscle tissue; set-up: dose 10 mg/kg, route intraperitoneal; details: read-out: Drug uptake
# S91 [21] = assay: Photodynamic efficacy against mouse Cloudman S91 cells allografted in DBA2 mouse assessed as necrotic scab formation in tumor at 10 mg/kg, ip followed by irradiated with 96 J cm'-2 laser light for 20 mins measured after 12 hrs; assay type: functional, organism-based; set-up: dose 10 mg/kg
# [22] = Biodistribution in mouse Cloudman S91 tumor bearing DBA2 mouse blood at 10 mg/kg, ip after 2 hrs; assay type: ADME, organism-based; set-up: dose 10 mg/kg, route intraperitoneal; details: read-out: Drug uptake
# [23] = Biodistribution in mouse Cloudman S91 tumor bearing DBA2 mouse liver at 10 mg/kg, ip after 48 hrs; assay type: ADME, organism-based; set-up: dose 10 mg/kg, route intraperitoneal; details: read-out: Drug uptake
# [24] = Biodistribution in mouse Cloudman S91 tumor bearing DBA2 mouse tumour at 10 mg/kg, ip after 24 hrs; assay type: ADME, organism-based, Neoplasm; set-up: dose 10 mg/kg, route intraperitoneal; details: read-out: Drug uptake
# [25] = Biodistribution in mouse Cloudman S91 tumor bearing DBA2 mouse lungs at 10 mg/kg, ip after 24 hrs; assay type: ADME, organism-based; set-up: dose 10 mg/kg, route intraperitoneal; details: lung, read-out: Drug uptake
# [26] = Biodistribution in mouse Cloudman S91 tumor bearing DBA2 mouse tumour at 10 mg/kg, ip after 12 hrs; assay type: ADME, organism-based, Neoplasm; set-up: dose 10 mg/kg, route intraperitoneal; details: read-out: Drug uptake
# S91 [27] = assay: Antitumor activity against mouse Cloudman S91 cells allografted in DBA2 mouse at 10 mg/kg, ip; assay type: functional, organism-based; set-up: dose 10 mg/kg
# Nucleic Acid [28] = assay: Ratio of drug level in tumor to muscle in ip dosed human HT29 tumor bearing mouse; assay type: ADME, organism-based; details: in vivo
# [29] = Biodistribution in mouse Cloudman S91 tumor bearing DBA2 mouse spleen at 10 mg/kg, ip after 6 hrs; assay type: ADME, organism-based; set-up: dose 10 mg/kg, route intraperitoneal; details: read-out: Drug uptake
# [30] = Biodistribution in mouse Cloudman S91 tumor bearing DBA2 mouse intestine at 10 mg/kg, ip after 72 hrs; assay type: ADME, organism-based; set-up: dose 10 mg/kg, route intraperitoneal; details: read-out: Drug uptake
# [31] = Biodistribution in mouse Cloudman S91 tumor bearing DBA2 mouse intestine at 10 mg/kg, ip after 24 hrs; assay type: ADME, organism-based; set-up: dose 10 mg/kg, route intraperitoneal; details: read-out: Drug uptake
# [32] = Biodistribution in mouse Cloudman S91 tumor bearing DBA2 mouse heart at 10 mg/kg, ip after 6 hrs; assay type: ADME, organism-based; set-up: dose 10 mg/kg, route intraperitoneal; details: read-out: Drug uptake
# S91 [33] = assay: Photodynamic efficacy against mouse Cloudman S91 cells allografted in DBA2 mouse assessed as hyperaemia, oedema and progressive darkening of tumor at 10 mg/kg, ip followed by irradiated with 96 J cm'-2 laser light for 20 mins; assay type: functional, organism-based; set-up: dose 10 mg/kg
# S91 [34] = assay: Photodynamic efficacy against mouse Cloudman S91 cells allografted in DBA2 mouse assessed as disappearance of tumor at 10 mg/kg, ip followed by irradiated with 96 J cm'-2 laser light for 20 mins measured after 80 days; assay type: functional, organism-based; set-up: dose 10 mg/kg
# [35] = Biodistribution in mouse Cloudman S91 tumor bearing DBA2 mouse tumour at 10 mg/kg, ip after 48 hrs; assay type: ADME, organism-based, Neoplasm; set-up: dose 10 mg/kg, route intraperitoneal; details: read-out: Drug uptake
# [36] = Biodistribution in mouse Cloudman S91 tumor bearing DBA2 mouse liver at 10 mg/kg, ip after 6 hrs; assay type: ADME, organism-based; set-up: dose 10 mg/kg, route intraperitoneal; details: read-out: Drug uptake
smiles,measurement,setting,value
CCNS(=O)(=O)c1ccc(Cl)c(-c2c3nc(c(-c4c(Cl)ccc(S(=O)(=O)NCC)c4Cl)c4ccc([nH]4)c(-c4c(Cl)ccc(S(=O)(=O)NCC)c4Cl)c4nc(c(-c5c(Cl)ccc(S(=O)(=O)NCC)c5Cl)c5ccc2[nH]5)CC4)CC3)c1Cl,concentration at 48 h,[1],7300 ng/g
same,concentration at 72 h,[2],3000 ng/g
same,concentration at 2 h,[3],200 ng/g
same,concentration at 72 h,[4],200 ng/g
same,concentration at 6 h,[5],160 ng/g
same,concentration at 2 h,[6],40 ng/g
same,concentration at 24 h,[7],500 ng/g
same,concentration at 48 h,[8],500 ng/g
same,Ratio,Nucleic Acid [9],6
same,concentration at 72 h,[10],15 ng/g
same,Activity,Mus musculus,Toxic
same,concentration at 12 h,[11],6100 ng/g
same,Ratio,Nucleic Acid [12],7
same,concentration at 6 h,[13],240 ng/g
same,concentration at 48 h,[14],900 ng/g
same,concentration at 48 h,[15],130 ng/g
same,concentration at 6 h,[16],70 ng/g
same,concentration at 72 h,[17],630 ng/g
same,Activity,S91 [18],Active
same,concentration at 6 h,[19],50 ng/g
same,concentration at 48 h,[20],70 ng/g
same,Activity,S91 [21],Active
same,concentration at 2 h,[22],90 ng/g
same,concentration at 48 h,[23],2400 ng/g
same,concentration at 24 h,[24],960 ng/g
same,concentration at 24 h,[25],850 ng/g
same,concentration at 12 h,[26],370 ng/g
same,Activity,S91 [27],inactive
same,Ratio,Nucleic Acid [28],5
same,concentration at 6 h,[29],7000 ng/g
same,concentration at 72 h,[30],300 ng/g
same,concentration at 24 h,[31],750 ng/g
same,concentration at 6 h,[32],100 ng/g
same,Activity,S91 [33],Active
same,Activity,S91 [34],inactive
same,concentration at 48 h,[35],320 ng/g
same,concentration at 6 h,[36],4800 ng/g
